Source: PMC8300687, “A Fine-Tuned Lipophilicity/Hydrophilicity Ratio Governs Antibacterial Potency and Selectivity of Bifurcated Halogen Bond-Forming NBTIs” (Antibiotics, 2021)
≈ marks a conversion by molar mass, not a printed value. Read-outs that look alike come from different tables or passages of the source.

What was measured:
S. aureus DNA gyrase = molecular target: T1, S. aureus DNA gyrase (Staphylococcus aureus, UniProt P20831); assay: gel-based S. aureus Gyrase Supercoiling assay (Inspiralis); assay type: biochemical; conditions: gel-based assays by Inspiralis, as detailed in [13]
T1 construct: purchased Inspiralis (Norwich, UK)
T1 sequence (P20831 whole entry): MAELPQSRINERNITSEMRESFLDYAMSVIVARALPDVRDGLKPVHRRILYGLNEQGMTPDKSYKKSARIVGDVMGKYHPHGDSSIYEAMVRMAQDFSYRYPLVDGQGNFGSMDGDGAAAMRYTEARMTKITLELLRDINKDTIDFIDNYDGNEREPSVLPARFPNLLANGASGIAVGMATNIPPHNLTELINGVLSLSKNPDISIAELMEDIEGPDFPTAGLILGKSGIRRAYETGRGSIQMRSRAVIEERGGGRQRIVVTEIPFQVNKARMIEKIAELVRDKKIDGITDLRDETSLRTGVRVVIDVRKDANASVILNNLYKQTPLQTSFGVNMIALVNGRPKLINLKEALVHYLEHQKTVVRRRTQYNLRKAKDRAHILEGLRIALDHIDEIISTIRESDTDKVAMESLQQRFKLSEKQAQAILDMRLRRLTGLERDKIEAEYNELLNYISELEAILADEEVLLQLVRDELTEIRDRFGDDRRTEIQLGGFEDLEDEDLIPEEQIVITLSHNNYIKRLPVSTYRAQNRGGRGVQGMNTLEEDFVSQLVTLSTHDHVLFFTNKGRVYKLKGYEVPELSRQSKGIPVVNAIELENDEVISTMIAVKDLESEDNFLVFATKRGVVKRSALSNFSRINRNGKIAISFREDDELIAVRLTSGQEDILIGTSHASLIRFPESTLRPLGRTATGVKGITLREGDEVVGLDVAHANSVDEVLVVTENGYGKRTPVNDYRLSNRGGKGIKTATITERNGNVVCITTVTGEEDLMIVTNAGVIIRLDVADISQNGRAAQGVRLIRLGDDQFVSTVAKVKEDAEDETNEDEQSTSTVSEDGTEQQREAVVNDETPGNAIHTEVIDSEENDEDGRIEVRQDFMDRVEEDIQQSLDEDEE
T1 sequence (P0A0K8 whole entry partner): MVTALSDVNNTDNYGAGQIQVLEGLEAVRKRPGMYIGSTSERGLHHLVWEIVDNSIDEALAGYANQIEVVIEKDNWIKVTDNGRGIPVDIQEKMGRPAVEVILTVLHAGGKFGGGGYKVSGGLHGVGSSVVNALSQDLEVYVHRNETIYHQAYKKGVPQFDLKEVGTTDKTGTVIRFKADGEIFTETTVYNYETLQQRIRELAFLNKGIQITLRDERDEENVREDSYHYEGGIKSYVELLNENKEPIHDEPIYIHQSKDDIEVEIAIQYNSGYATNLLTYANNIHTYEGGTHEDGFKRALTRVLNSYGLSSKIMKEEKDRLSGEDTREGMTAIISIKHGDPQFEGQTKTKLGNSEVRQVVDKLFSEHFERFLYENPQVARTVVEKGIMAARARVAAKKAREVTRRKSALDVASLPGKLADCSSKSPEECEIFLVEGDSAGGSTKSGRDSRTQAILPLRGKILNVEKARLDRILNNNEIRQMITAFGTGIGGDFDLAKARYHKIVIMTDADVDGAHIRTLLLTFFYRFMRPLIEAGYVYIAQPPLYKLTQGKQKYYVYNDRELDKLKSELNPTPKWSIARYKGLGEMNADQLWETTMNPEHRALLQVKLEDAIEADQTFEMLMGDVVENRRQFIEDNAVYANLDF
Excerpt: […]. […] IC50 value represents the mean of two to four independent measurements.

MRSA = assay: MIC broth microdilution, MRSA; assay type: cell-based, methicillin-resistant S. aureus; conditions: Staphylococcus aureus, read-out: MIC MRSA
Experimental: (§1) Antimicrobial testing was carried out by the broth microdilution method in 96-well plate format following the Clinical and Laboratory Standards Institute (CLSI) guidelines and European Committee on Antimicrobial Susceptibility Testing (EUCAST) recommendations. Bacterial suspension of specific bacterial strain equivalent to 0.5 McFarland turbidity standard was diluted with cation-adjusted Mueller Hinton broth with TES (Thermo Fisher Diagnostic, Landsmeer, The Netherlands), to obtain a final inoculum of 10^5 CFU/mL. Compounds dissolved in DMSO and inoculum were mixed together and incubated for 18–20 h at 35 °C. Suspensions of Mycobacterium sp. were prepared into a tube of Middelbrook 7H9 broth supplemented with 5% OADC (Thermo Scientific, Trek Diagnostic Systems, West Sussex, UK) and incubated for at least 10 days. After incubation the minimal inhibitory concentration (MIC) values were determined by visual inspection as the lowest dilution of compounds showing no turbidity. Tetracycline was used as a positive control on every assay plate.

MRSA (QA-11.4) = assay: MIC broth microdilution, MRSA QA-11.4; assay type: cell-based, methicillin-resistant S. aureus; conditions: Staphylococcus aureus, 20 h, resistant to cefoxitin, read-out: MIC MRSA (QA-11.4)
Experimental: as §1

[1] = tested on: E. faecalis DRK 057 (ATCC 29212); assay: MIC broth microdilution, E. faecalis; assay type: cell-based; conditions: Enterococcus faecalis, ATCC29212; read-out: MIC E. faecalis DRK 057 (ATCC 29212)
Experimental: as §1

E. coli (ATCC 25922) = assay: MIC broth microdilution, E. coli ATCC 25922; assay type: cell-based; conditions: Escherichia coli, ATCC25922
Experimental: as §1

E. coli (QA-11.7) = assay: MIC broth microdilution, E. coli QA-11.7; assay type: cell-based; conditions: Escherichia coli, 20 h; multi-resistant isolate (ampicillin, azithromycin, cefotaxime, ertapenem, imipenem and others); read-out: MIC E. coli (QA-11.7)
Experimental: as §1

M. smegmatis = assay: MIC, M. smegmatis; assay type: cell-based, Mycobacterium smegmatis; conditions: Mycolicibacterium smegmatis; read-out: MIC M. smegmatis
Experimental: as §1

HepG2 = assay: Metabolic activity assessment (cytotoxicity), HepG2; assay type: cell-based; conditions: Homo sapiens
Experimental: Cells of the HepG2 line (ATCC® HB-8065™) and HUVEC (ATCC® CRL-1730™) were cultured in Dulbecco’s Modified Eagle Medium (DMEM; Sigma-Aldrich, St. Louis, MO, USA) supplemented with 10% heat-deactivated FBS (Gibco, Grand Island, NE, USA), 2 mM L-glutamine, 100 U/mL penicillin, 100 μg/mL streptomycin (all from Sigma-Aldrich, St. Louis, MO, USA) in a humidified chamber at 37 °C and 5% CO2. The experiments were carried out on passages 7–9 for both cell lines. The tested compounds were dissolved in DMSO and further diluted in culture medium to a desired final concentration. Cells were seeded into 96-well plates at 8 × 10^4 cells/mL (100 μL/well) and incubated for 24 h to attach onto the wells. Cells were treated with 1 μM and 50 μM of each compound of interest or corresponding vehicle as control. […] The metabolic activity was assessed after 72 h treatment using the CellTiter 96 Aqueous One Solution Cell Proliferation Assay (Promega, Madison, WI, USA), in accordance with the manufacturer’s instructions. The absorbance was measured at 492 nm on an automated microplate reader BioTek Synergy HT (BioTek Instruments, Inc., Winooski, VT, USA). Data are presented as the percentage of metabolic activity of control cells stimulated with vehicle or as IC50 value (mean ± SD) from two independent experiments, each conducted in duplicate or triplicate. IC50 values were calculated by a non-linear regression model using Graph Pad Prism 7 software.

[2] = Equilibrium solubility at pH 6.8; conditions: phosphate buffered saline, 37 °C, pH 6.8, aqueous buffer, thermodynamic from solid
Experimental: Prior to the measurements of solubility and permeability isocratic HPLC methods were developed. […] The individual method parameters for each compound are given in the Supplementary Materials Table S1.
The vials were then placed in a homogenizer (Next Advance Bullet Blender, Troy, NY, USA) for 5 min ad speed setting “2” after which they were kept in a thermostated shaker (Tehtnica HeatMix, Domel, Slovenia) at 37 °C and 1200 RPM for 24 h. […] Twenty µL of these solutions were injected for the HPLC analysis by the described methods (Supplementary Materials Table S1). External standards for calibration were made in a mobile phase with 5% acetonitrile in a range of 30–90 mg/L and injected at 20 µL injection volumes.

[3] = molecular target: T2, hERG potassium ion channel (Homo sapiens, UniProt Q12809); assay: FP-based hERG binding assay (Invitrogen kit)
T2 construct: purchased Invitrogen (assay run at TCG Lifesciences Pvt. Ltd.)
T2 sequence (Q12809 whole entry): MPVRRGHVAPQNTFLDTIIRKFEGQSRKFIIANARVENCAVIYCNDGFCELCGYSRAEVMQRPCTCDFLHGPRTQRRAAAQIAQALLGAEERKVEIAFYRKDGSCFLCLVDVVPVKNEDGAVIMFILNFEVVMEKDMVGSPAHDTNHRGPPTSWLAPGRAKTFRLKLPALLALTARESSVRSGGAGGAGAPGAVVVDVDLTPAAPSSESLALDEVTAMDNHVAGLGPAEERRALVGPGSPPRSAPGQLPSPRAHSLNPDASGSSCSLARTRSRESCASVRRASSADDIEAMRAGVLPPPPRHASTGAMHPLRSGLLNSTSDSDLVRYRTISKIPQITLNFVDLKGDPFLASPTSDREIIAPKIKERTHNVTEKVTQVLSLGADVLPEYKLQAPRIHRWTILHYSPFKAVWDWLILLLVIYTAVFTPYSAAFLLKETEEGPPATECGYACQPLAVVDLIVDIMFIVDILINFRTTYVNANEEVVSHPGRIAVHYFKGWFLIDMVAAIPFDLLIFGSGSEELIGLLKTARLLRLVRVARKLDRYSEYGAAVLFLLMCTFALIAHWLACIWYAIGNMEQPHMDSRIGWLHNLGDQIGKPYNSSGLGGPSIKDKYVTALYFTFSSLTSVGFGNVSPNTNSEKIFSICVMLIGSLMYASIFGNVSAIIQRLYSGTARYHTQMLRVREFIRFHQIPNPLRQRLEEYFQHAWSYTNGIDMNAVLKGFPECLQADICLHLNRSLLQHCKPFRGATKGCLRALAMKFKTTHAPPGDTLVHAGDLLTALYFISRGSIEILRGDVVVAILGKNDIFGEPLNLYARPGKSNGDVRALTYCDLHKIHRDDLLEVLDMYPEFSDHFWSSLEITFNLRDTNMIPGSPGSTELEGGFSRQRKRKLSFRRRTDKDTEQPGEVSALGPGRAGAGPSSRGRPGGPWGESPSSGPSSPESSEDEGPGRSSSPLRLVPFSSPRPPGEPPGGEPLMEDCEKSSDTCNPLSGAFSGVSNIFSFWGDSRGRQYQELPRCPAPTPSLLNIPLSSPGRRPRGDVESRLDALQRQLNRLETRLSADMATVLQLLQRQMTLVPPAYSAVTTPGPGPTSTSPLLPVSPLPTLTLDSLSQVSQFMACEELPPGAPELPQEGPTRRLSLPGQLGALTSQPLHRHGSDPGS
Experimental: Cardiovascular safety profile was entirely outsourced. hERG screening was performed at TCG Lifesciences Pvt. Ltd., Kolkata, West Bengal, India with FP-based hERG binding assay (Invitrogen kit).

[4] = E. coli ATCC 25922, read-out: E. coli MIC (converted)
[5] = read-out: MIC E. coli (ATCC 25922)
[6] = HepG2, 72 h, metabolic activity after 72 h treatment
[7] = HepG2, metabolic activity after 72 h treatment

## COc1ccc2nccc(CCN3CCC(NCc4ccc(I)cc4)CC3)c2n1 [Compound 15]
S. aureus DNA gyrase
  IC50: 0.011 ± 0.003 µM
MRSA
  MIC: 0.0078 µg/mL (≈ 0.0155 µM)
MRSA (QA-11.4)
  MIC: 0.0625 µg/mL (≈ 0.124 µM)
[1]
  MIC: 1 µg/mL (≈ 1.99 µM)
E. coli (ATCC 25922); [4]
  MIC: 3.98 µM
E. coli (ATCC 25922); range over E. coli strains, read-out: MIC E. coli
  MIC: 0.25 to 2 µg/mL
E. coli (ATCC 25922); [5]
  MIC: 2 µg/mL
E. coli (QA-11.7)
  MIC: 1 µg/mL (≈ 1.99 µM)
M. smegmatis
  MIC: 0.015 µg/mL (≈ 0.0299 µM)
HepG2; [6]
  IC50: ~10 µM
[2]
  solubility thermodynamic at 24 h: 184 µg/mL (≈ 366 µM)

## COc1ccc2nccc(CCN3CCC(NCc4ccc(OC(F)F)c(OC)c4)CC3)c2n1 [Compound 19, N-(4-(Difluoromethoxy)-3-methoxybenzyl)-1-(2-(6-methoxy-1,5-naphthyridin-4-yl)ethyl)piperidin-4-amine]
MRSA
  MIC: 2 µg/mL (≈ 4.23 µM)
MRSA (QA-11.4)
  MIC: 2 µg/mL (≈ 4.23 µM)
[1]
  MIC: 16 µg/mL (≈ 33.9 µM)
E. coli (ATCC 25922); [4]
  MIC: 67.7 µM
E. coli (ATCC 25922); [5]
  MIC: 32 µg/mL
E. coli (QA-11.7)
  MIC: 2 µg/mL (≈ 4.23 µM)
M. smegmatis
  MIC: 4 µg/mL (≈ 8.46 µM)
HepG2; [6]
  IC50: 6.31 ± 0.09 µM
[3]
  IC50: 0.46 µM
[2]
  solubility thermodynamic at 24 h: 79 µg/mL (≈ 167 µM)

## COc1ccc2nccc(CCN3CCC(NCc4ccc(OC(F)F)c(O)c4)CC3)c2n1 [Compound 20, 2-(Difluoromethoxy)-5-((1-(2-(6-methoxy-1,5-naphthyridin-4-yl)ethyl)piperidin-4-ylamino)methyl)phenol]
MRSA
  MIC: 1 µg/mL (≈ 2.18 µM)
MRSA (QA-11.4)
  MIC: 2 µg/mL (≈ 4.36 µM)
[1]
  MIC: 4 µg/mL (≈ 8.72 µM)
E. coli (ATCC 25922); [4]
  MIC: 17.4 µM
E. coli (ATCC 25922); [5]
  MIC: 8 µg/mL
E. coli (QA-11.7)
  MIC: 2 µg/mL (≈ 4.36 µM)
M. smegmatis
  MIC: 0.5 µg/mL (≈ 1.09 µM)
HepG2; [6]
  IC50: 10.9 ± 0.12 µM
[3]
  IC50: 0.18 µM
[2]
  solubility thermodynamic at 24 h: 103 µg/mL (≈ 225 µM)

## COc1ccc2nccc(CCN3CCC(NCc4ccc(C(F)(F)F)nc4)CC3)c2n1 [Compound 21, 1-(2-(6-Methoxy-1,5-naphthyridin-4-yl)ethyl)-N-((6-(trifluoromethyl)pyridin-3-yl)methyl)piperidin-4-amine]
MRSA
  MIC: 0.5 µg/mL (≈ 1.12 µM)
MRSA (QA-11.4)
  MIC: 1 µg/mL (≈ 2.24 µM)
[1]
  MIC: 2 µg/mL (≈ 4.49 µM)
E. coli (ATCC 25922); [4]
  MIC: 71.8 µM
E. coli (ATCC 25922); [5]
  MIC: 32 µg/mL
E. coli (QA-11.7)
  MIC: 2 µg/mL (≈ 4.49 µM)
M. smegmatis
  MIC: 0.25 µg/mL (≈ 0.561 µM)
HepG2; [7]
  IC50: > 50 µM
[3]
  IC50: 1.97 µM
[2]
  solubility thermodynamic at 24 h: 209 µg/mL (≈ 469 µM)

## COc1ccc(CNC2CCN(CCc3ccnc4ccc(OC)nc34)CC2)cn1 [Compound 22, 1-(2-(6-Methoxy-1,5-naphthyridin-4-yl)ethyl)-N-((6-methoxypyridin-3-yl)methyl)piperidin-4-amine]
MRSA
  MIC: 1 µg/mL (≈ 2.45 µM)
MRSA (QA-11.4)
  MIC: 2 µg/mL (≈ 4.91 µM)
[1]
  MIC: 2 µg/mL (≈ 4.91 µM)
E. coli (ATCC 25922); [4]
  MIC: 38.1 µM
E. coli (ATCC 25922); [5]
  MIC: 16 µg/mL
E. coli (QA-11.7)
  MIC: 2 µg/mL (≈ 4.91 µM)
M. smegmatis
  MIC: 16 µg/mL (≈ 39.3 µM)
HepG2; [7]
  IC50: 32.03 ± 0.3 µM
[3]
  IC50: 3.05 µM
[2]
  solubility thermodynamic at 24 h: 1460 µg/mL (≈ 3580 µM)
